# System: MDCKII cells
# Assay: Apparent permeability (Papp AB) in MDCKII cells
# Format: in vitro ADME, Canine
# Conditions: MDCKII cells, pH 7.4
# Experimental: Methods and Procedure: This study was conducted in compliance with previously described procedures to assure data integrity and adherence to GLP regulations. The experiments described herein were designed to evaluate the apparent permeability (Papp) of test compounds at pH 7.4. Additionally, the MDCKII-MDR1 cell line (Madin-Darby Canine Kidney clone II cell line heterologously expressing the human P-glycoprotein transporter) and mock cell line MDCKII were used to determine whether a compound acted as a P-gp substrate, in the absence and in the presence of the potent P-gp inhibitor. Test control items (digoxin, metoprolol, and atenolol) and control P-gp inhibitor (GF120918) stock solution were prepared in DMSO. Bidirectional assays (Apical to Basolateral [AB] and Basolateral to Apical [BA]) were run, in both the absence and presence of P-gp inhibitor GF120918 in MDCKII-MDR1 and mock cell line MDCKII, using as transport buffer HBSSH at a pH of 7.4 (n=3).
# Compounds were tested at a single concentration (i.e. at 3 or 10 μM) at one time point (i.e. 60 min). Alternative concentrations or time-points may also be investigated. As reference compounds, digoxin (P-gp substrate), atenolol (low permeable compound) and metoprolol (high permeable compound) were included at a single concentration (e.g., 10 or 25 μM) and at single time point (e.g., 60 min). Digoxin transport was evaluated in two directions (apical-to-basolateral [AB] and basolateral-to-apical [BA]) in the absence and presence of GF120918 or in mock cells, MDCKII (n=3). Atenolol and metoprolol were only tested in the AB direction in absence of GF120918 or in mock cells, MDCKII (n=3). The integrity of the cell monolayer was evaluated after the permeability experiment using the paracellular permeability marker Lucifer yellow (LY) in the apical to basolateral direction in each well.
# MDCKII or MDCKII-MDRI cells cultivated using DMEM (high glucose, GlutaMAX™ supplemented with pyruvate, 10% FBS HI and Pen/Strep) and seeded onto microporous PET (Polyethylene Terephthalate) membranes in HTS 96-Multiwell Insert plates at density of ˜175,000-245,000 cells/cm^2 (25000-35000 cells/well; 50 μL/well) in DMEM medium and incubated for 3-4 days at 37° C.-5% CO2. Medium was changed a day before the experiment.
# Stock solutions of test items were prepared in DMSO at a concentration of 5 or 10 mM and stored at −20° C. until use. The potent P-gp inhibitor, GF120918 (stock solution 10 mM) and the reference controls digoxin, atenolol, metoprolol (stock solutions 3 or 10 mM) were prepared in DMSO and stored at −20° C. until use.
# Donor working solutions of test items and reference controls will be prepared at a concentration of 10 or 25 μM, diluting the stock solutions in HBSSH. Receiver working solutions contained transport buffer only. […]
# MDCKII and MDCKII-MDR1 cells were preincubated (37° C., 15 to 30 minutes) in receiver working solutions containing transport buffer on apical (A) and basolateral (B) sides. Following pre-incubation, test items and control items (digoxin) transport were measured in two directions (apical to basolateral [AB]) and basolateral to apical [BA]), and these directions were performed in triplicate sets of wells, in both the absence and presence of […] GF120918 or mock MDCKII cells. […] Transport of permeability reference controls, atenolol and metoprolol, were measured in one direction (apical to basolateral [AB]) (n=3). […]
smiles,measurement,value
"CNC(C)Cc1ccc2c(c1)OCO2 (stereo not shown) [MDMA, reference compound]",Permeability Classification,high permeability

# From patent US12595269B2, “Morpholine-like monoamine releasers” (Solvonis Therapeutics Ireland Holdings Limited, priority 2022, dated 2026)
